How the values were obtained:
Type in all cases: in vitro ADME
MDR1 = test: MDCK-MDR1 permeability assay; conditions: dog, MDCK-MDR1, MDCK-MDR1 cells; for efflux ratio at 2 h, 3 μM: Papp B→A divided by Papp A→B, read-out: Efflux ratio (ER); for Papp A→B at 2 h, 3 μM: test compound 3 μM, 2 hours at 37 degrees C, apical to basolateral
Method: The bidirectional permeability (Apical to Basal and Basal to Apical directions) of test compounds in MDCK-MIDR1 cells were evaluated using MDCK-MIDR1 cells seeded in Solvo PreadyPort™ MDCK 96-well plate. Once the plate was received from ReadyCell (Barcelona, Spain), it was treated as per PreadyPort™ user's manual.
For the Apical to Basolateral (A→B) permeability, 80 μL of test compound (3 μM) co-dosed with LY (Lucifer Yellow) (100 μM) in HBSS (Hank's Balanced Salt Solution) assay buffer was added to the donor side (A) while 250 μL of HBSS buffer was added to the receiver side (B). For the Basolateral to Apical (B→A) permeability, 255 μL of test compound (3 μM) in HBSS assay buffer was added to the donor side (B) while 75 μL of HBSS buffer containing LY (100 μM) was added to the receiver side (A).
The plate was placed in an incubator set at 37 degrees C. After 10 minutes of pre-warming, 5 μL aliquot was taken from donor compartment and set aside as the dosing solution. The MDCK-MDR1 incubation plate was placed back into the incubator for 2 hours of incubation at 37 degrees C. After 2 hours of incubation, 25 μL and 5 μL aliquots were removed from the receiver and donor sides, respectively. To the 5 μL aliquots taken from the donor sides (before and after a 2-hour incubation) were diluted with 20 μL of the HBSS buffer. All samples were mixed with 150 μL with acetonitrile containing internal standard (IS) and 200 μL water, and analyzed by LC-MS/MS.
The apparent permeability (Papp) was calculated using the following formula: Papp=dQ/dt×1/A×C0 where: • dQ/dt: amount of translocated material over incubation time (nmol/s) • A: area of insert (0.14 cm^2 for PreadyPort™ MDR1-96) • C0: initial concentration of product applied in apical (A→B) or basal (B→A) compartment (nmol/mL)
The efflux ratio (ER) was measured by dividing the Papp (basolateral to apical direction) by Papp (apical to basolateral direction). It is a general measure of the involvement of active processes. An ER>2 is considered positive for active transport.
Percent recovery was measured using the following equation:
[formula] where: • VR: Volume of the receiver compartment (mL) • VD: Volume of the donor compartment (mL) • CN: Concentration of dosing solution (μM) collected after 10 minutes of incubation • CR^final: Receiver concentration at the end of the incubation (μM) • CD^final: Donor concentration at the end of the incubation (μM)
The data reported in Table 3 were obtained according to the MDCK-MDR1 permeability assay described above.

human hepatocytes = test: Hepatocytes stability assay (human hepatocytes); conditions: human hepatocytes; scaled hepatic clearance divided by liver blood flow (well-stirred model, fu assumed unity)
Method: (§1) In vitro metabolic stability was assessed using cryopreserved hepatocytes from male Sprague Dawley rats and a pool of 50 mixed gender humans (BioIVT, Baltimore, MD). The incubation mixtures were prepared by mixing 250 μL of pre-warmed KHB (Krebs-Henseleit buffer) containing 2×10^6 cell/mL of hepatocytes with 250 μL of pre-warmed KHB buffer containing 2 μM of test compounds in a 48-well plate, giving a final concentration of 1 μM test compound (0.1% DMSO) and 1×10^6 cell/mL of hepatocytes. The reaction mixture was incubated at 37 degrees C. A 50 μL aliquot of incubation mixture was taken at time points (0, 15, 30, 60, 120 and 240 minutes) and transferred into a 96-well plate containing 300 μL ice-cold acetonitrile (containing 30 ng/mL of labetalol and 10 ng/mL of Naltrexone-d3 as internal standards) and immediately placed in ice to terminate the reaction. Samples were centrifuged, and supernatants were transferred into 96-well plates for liquid chromatography with tandem mass spectrometry (LC-MS/MS) analysis to monitor the depletion of the test compound.
(§2) Data was calculated as percent remaining by assuming zero-minute time point peak area ratio (analyte/IS) as 100% and dividing remaining time point peak area ratios by zero-minute time point peak area ratio. Data were fitted to a first-order decay model to determine half-life. From a plot of log (ln) peak area against time, the slope of the line was determined. Subsequently, half-life (T1/2) and intrinsic clearance (CLint) were calculated using the equations below: Elimination rate constant (k)=(−slope) Half-life (T1/2) min=0.693/k Intrinsic Clearance (CLint) (mL/min/million cells)=(V×0.693)/T1/2 V=incubation volume mL/number of cells The in vitro T1/2 was converted to in vitro intrinsic clearance (CLint,hep) in units of mL/min/kg using the formula shown below:
(§3) [formula] The in vitro intrinsic clearance (CLint,hep) was scaled to in vivo hepatic clearance (CL,hep) using the following equation which was adapted from a well-stirred model.
(§4) [formula] where Q is the liver blood flow and fu is the fraction unbound (assumed to be unity in this case). All parameters used in the calculation are shown below (Table 4).
(§5) The extraction ratio (ER) was calculated by dividing the hepatic clearance of a compound to the liver blood flow. The data reported in Table 5 were obtained according to the human hepatocytes stability assay described above.

[1] = Hepatocytes stability assay (human hepatocytes); conditions: both sexes, human, cryopreserved hepatocytes, cryopreserved human hepatocytes (pool of 50 mixed gender); 1 μM test compound; 1×10^6 cell/mL; 37 degrees C; read-out: CLint (μL/min/million cells)
Method: as §1, §2, §3, §4, §5

Row | SMILES | efflux ratio at 2 h, 3 μM (MDR1) | Papp A→B at 2 h, 3 μM (MDR1) [×10⁻⁶ cm/s] | Extraction Ratio (ER) (human hepatocytes) | hepatocyte CLint at 1 μM [1] [µL/min/1e6 cells]
1 | CS(=O)(=O)N[C@H]1CCCN2C(=O)COc3cc(C#N)ccc3[C@H]3CC[C@H](CC3)OCC12 (stereo in doubt) [Compound 47] | > 100 | 0.19 | 0.39 | 4.3
2 | O=C1COc2ccccc2[C@H]2CC[C@H](CC2)OCC2[C@@H](NS(=O)(=O)CC3CCC3)CCCN12 (stereo in doubt) [Compound 43] | 10 | 0.96 | 0.89 | 55
3 | O=C1COc2ccc(Cl)cc2C2CCC(CC2)OC[C@H]2[C@@H](NS(=O)(=O)C3CC3)CCCN12 (stereo in doubt) [Compound 16] | > 100 | 0.2 | 0.47 | 6.1
4 | O=C1COc2ncccc2C2CCC(CC2)OC[C@H]2[C@@H](NS(=O)(=O)C3CC3)CCCN12 (stereo in doubt) [Compound 14] | > 100 | 0.3 | 0.75 | 20
5 | O=S(=O)(N[C@H]1CCCN2CCOc3ccccc3[C@H]3CC[C@H](CC3)OCC12)C1CCC1 (stereo in doubt) [Compound 57] | 6 | 1.7 | 0.91 | 65
6 | Cc1ncnc2c1[C@H]1CC[C@H](CC1)OCC1[C@@H](NS(=O)(=O)C(C)C)CCCN1C(=O)CO2 (stereo in doubt) [Compound 69] | > 100 | < 0.041 | 0.34 | 3.4
7 | O=C1COc2cccc(F)c2[C@H]2CC[C@H](CC2)OCC2[C@@H](NS(=O)(=O)C3CC3)CCCN12 (stereo in doubt) [Compound 74] | 41 | 0.62 | 0.69 | 15
8 | Cc1c(Cl)ccc2c1[C@H]1CC[C@H](CC1)OCC1[C@@H](NS(=O)(=O)C3CC3)CCCN1C(=O)CO2 (stereo in doubt) [Compound 75] | 65 | 0.3 | 0.61 | 11
9 | Cc1cccc2c1OCC(=O)N1CCC[C@H](NS(C)(=O)=O)C1CO[C@H]1CC[C@@H]2CC1 (stereo in doubt) [Compound 37] | > 100 | 0.23 | 0.78 | 24
10 | O=C1COc2ccccc2[C@H]2CC[C@H](CC2)OCC2[C@@H](NS(=O)(=O)C3COC3)CCCN12 (stereo in doubt) [Compound 80] | 51 | 0.79 | 0.63 | 11
11 | Cc1ccc2c(c1C)[C@H]1CC[C@H](CC1)OCC1[C@@H](NS(C)(=O)=O)CCCN1C(=O)CO2 (stereo in doubt) [Compound 78] | 74 | 0.41 | 0.52 | 7.2
12 | CS(=O)(=O)N[C@H]1CCCN2C(=O)COc3ccc(C#N)cc3[C@H]3CC[C@H](CC3)OCC12 (stereo in doubt) [Compound 46] | 81 | 0.18 | 0.29 | 2.8
13 | CN(C)CCS(=O)(=O)N[C@H]1CCCN2C(=O)COc3ccccc3[C@H]3CC[C@H](CC3)OCC12 (stereo in doubt) [Compound 39] | > 100 | < 0.086 | 0.75 | 20
14 | CC1(S(=O)(=O)N[C@H]2CCCN3CCOc4ccccc4[C@H]4CC[C@H](CC4)OCC23)CC1 (stereo in doubt) [Compound 58] | 7.5 | 1.4 | 0.89 | 55
15 | O=C1COc2ccccc2[C@H]2CC[C@H](CC2)OCC2[C@@H](NS(=O)(=O)C3CCCC3)CCCN12 (stereo in doubt) [Compound 33] | 59 | 0.55 | 0.86 | 41
16 | Cc1cccc2c1C1CCC(CC1)OC[C@H]1[C@@H](NS(=O)(=O)C(C)C)CCCN1C(=O)CO2 (stereo in doubt) [Compound 9] | 50 | 0.87 | 0.83 | 32
17 | Cc1ncnc2c1[C@H]1CC[C@H](CC1)OCC1[C@@H](NS(=O)(=O)C(C)C)CCN1C(=O)CO2 (stereo in doubt) [Compound 86] | 24 | 1.9 | 0.38 | 4.1
18 | Cc1ccc2c(c1)C1CCC(CC1)OC[C@H]1[C@@H](NS(=O)(=O)C(C)C)CCCN1C(=O)CO2 (stereo in doubt) [Compound 18] | 19 | 0.83 | 0.46 | 5.8
19 | Cc1ncnc2c1[C@H]1CC[C@H](CC1)OCC1[C@@H](NS(C)(=O)=O)CCN1C(=O)CO2 (stereo in doubt) [Compound 82] | 59 | 0.58 | <0.22 | < 1.9
20 | CC(C)(C)S(=O)(=O)N[C@H]1CCCN2C(=O)COc3ccccc3[C@H]3CC[C@H](CC3)OCC12 (stereo in doubt) [Compound 44] | 7.8 | 2 | 0.87 | 46
21 | CC(C)S(=O)(=O)N[C@H]1CCCN2CCOc3ncccc3[C@H]3CC[C@H](CC3)OCC12 (stereo in doubt) [Compound 64] | 1.2 | 12 | 0.87 | 46
22 | O=C1COc2ccccc2C2CCC(CC2)OC[C@H]2[C@@H](NS(=O)(=O)CF)CCCN12 (stereo in doubt) [Compound 6] | 35 | 1 | 0.73 | 18
23 | Cc1ccc2c(c1)[C@H]1CC[C@H](CC1)OCC1[C@@H](NS(C)(=O)=O)CCCN1CCO2 (stereo in doubt) [Compound 54] | 2 | 5.2 | 0.85 | 38
